{"source": "patent US20170046504A1", "about": "“SYSTEM FOR DETERMINING A SUITABILITY OF AN ACTIVE INGREDIENT TO BE APPLIED TRANSDERMALLY OR TRANSMUCOSALLY AND CORRESPONDING METHOD” (LTS Lohmann Therapie-Systeme AG, priority 2014, published 2017)", "origin": "cited, not measured here", "key": {"[1]": {"details": "in vivo"}, "[2]": {"details": "assumed"}}}
{"smiles": "CN1CCCC1c1cccnc1", "note": "(centres unmarked) [nicotine]", "values": [{"measurement": "half-life period", "setting": "[1]", "result": "1 to 6", "unit": "h"}, {"measurement": "efficiency for oral administration", "setting": "[2]", "result": "20-45%"}]}
